Laboratory results from paper PMC3873546, “Two Distinct Determinants of Ligand Specificity in T1R1/T1R3 (the Umami Taste Receptor)” (The Journal of Biological Chemistry, 2013).

Legend:
[1] = target: T1, squirrel monkey T1R1 (with mT1R3) (Saimiri boliviensis, UniProt A0A2K6TN71); test: mt-clytin-II Ca2+ luminescence, HEK293T; assay type: cell-based; details: dose-response curve only, pH 7.4, no IMP
T1 construct: full-length squirrel monkey T1R1 assembled from genomic exons (liver DNA); HEK293T with mouse T1R3; with Taste receptor type 1 member 3 (Mus musculus)
T1 sequence (A0A2K6TN71 21-841): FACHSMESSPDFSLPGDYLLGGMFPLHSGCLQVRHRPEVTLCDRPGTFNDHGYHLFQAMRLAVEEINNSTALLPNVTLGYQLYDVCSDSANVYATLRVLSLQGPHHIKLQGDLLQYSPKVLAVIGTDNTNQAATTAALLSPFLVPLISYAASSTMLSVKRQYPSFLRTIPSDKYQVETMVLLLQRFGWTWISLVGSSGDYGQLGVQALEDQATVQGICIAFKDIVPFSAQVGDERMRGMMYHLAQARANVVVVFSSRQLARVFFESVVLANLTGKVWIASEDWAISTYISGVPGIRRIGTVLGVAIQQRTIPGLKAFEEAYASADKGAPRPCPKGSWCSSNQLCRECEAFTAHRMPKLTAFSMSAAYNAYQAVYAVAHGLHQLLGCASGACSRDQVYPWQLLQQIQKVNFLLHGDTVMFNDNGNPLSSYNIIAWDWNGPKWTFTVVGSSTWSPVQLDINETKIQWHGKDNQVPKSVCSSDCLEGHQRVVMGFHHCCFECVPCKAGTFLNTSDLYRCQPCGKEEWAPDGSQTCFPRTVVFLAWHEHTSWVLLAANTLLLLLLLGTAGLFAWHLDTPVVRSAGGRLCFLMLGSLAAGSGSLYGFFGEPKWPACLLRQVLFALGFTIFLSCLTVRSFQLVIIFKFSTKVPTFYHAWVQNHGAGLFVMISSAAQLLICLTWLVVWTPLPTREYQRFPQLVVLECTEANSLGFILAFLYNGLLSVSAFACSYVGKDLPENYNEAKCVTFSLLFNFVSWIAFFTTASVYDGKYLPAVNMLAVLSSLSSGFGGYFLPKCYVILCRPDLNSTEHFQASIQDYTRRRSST
T1 sequence (Q925D8 21-858 partner): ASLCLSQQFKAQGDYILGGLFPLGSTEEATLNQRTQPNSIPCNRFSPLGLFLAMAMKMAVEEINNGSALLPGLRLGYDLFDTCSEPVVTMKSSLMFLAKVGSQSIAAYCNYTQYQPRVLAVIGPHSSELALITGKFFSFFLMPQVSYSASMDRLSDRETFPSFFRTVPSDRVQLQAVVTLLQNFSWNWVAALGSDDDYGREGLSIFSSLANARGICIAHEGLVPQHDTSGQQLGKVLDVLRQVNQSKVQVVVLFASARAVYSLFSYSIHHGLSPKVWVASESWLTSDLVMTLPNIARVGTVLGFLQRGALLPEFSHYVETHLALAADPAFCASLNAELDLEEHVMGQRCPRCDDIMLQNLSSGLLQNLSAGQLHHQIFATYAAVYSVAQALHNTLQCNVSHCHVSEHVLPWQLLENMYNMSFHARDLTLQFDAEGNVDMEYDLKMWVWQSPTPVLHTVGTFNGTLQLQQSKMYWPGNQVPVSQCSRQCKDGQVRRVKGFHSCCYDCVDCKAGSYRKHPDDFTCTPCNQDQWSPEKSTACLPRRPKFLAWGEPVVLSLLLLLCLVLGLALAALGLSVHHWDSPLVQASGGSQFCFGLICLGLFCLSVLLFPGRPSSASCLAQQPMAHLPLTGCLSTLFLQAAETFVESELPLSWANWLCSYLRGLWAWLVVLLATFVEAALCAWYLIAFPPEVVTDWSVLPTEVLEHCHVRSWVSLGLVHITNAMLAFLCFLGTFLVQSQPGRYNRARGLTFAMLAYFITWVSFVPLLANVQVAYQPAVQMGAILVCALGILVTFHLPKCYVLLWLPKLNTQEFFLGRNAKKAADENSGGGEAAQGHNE

hT1R1/mT1R3 = target: T2, hT1R1/mT1R3 (Homo sapiens, UniProt Q7RTX1); test: mt-clytin-II Ca2+ luminescence, HEK293T; assay type: cell-based; details: dose-response curve and 50 mM response, pH 7.4, no IMP; weak agonist
T2 construct: gene TAS1R1; mixed-species heteromer, full-length human T1R1 (841 residues) with mouse T1R3, pEAK10, HEK293T with rG15i2 and mt-apoclytin-II; with Taste receptor type 1 member 3 (Mus musculus)
T2 sequence (Q7RTX1 21-841): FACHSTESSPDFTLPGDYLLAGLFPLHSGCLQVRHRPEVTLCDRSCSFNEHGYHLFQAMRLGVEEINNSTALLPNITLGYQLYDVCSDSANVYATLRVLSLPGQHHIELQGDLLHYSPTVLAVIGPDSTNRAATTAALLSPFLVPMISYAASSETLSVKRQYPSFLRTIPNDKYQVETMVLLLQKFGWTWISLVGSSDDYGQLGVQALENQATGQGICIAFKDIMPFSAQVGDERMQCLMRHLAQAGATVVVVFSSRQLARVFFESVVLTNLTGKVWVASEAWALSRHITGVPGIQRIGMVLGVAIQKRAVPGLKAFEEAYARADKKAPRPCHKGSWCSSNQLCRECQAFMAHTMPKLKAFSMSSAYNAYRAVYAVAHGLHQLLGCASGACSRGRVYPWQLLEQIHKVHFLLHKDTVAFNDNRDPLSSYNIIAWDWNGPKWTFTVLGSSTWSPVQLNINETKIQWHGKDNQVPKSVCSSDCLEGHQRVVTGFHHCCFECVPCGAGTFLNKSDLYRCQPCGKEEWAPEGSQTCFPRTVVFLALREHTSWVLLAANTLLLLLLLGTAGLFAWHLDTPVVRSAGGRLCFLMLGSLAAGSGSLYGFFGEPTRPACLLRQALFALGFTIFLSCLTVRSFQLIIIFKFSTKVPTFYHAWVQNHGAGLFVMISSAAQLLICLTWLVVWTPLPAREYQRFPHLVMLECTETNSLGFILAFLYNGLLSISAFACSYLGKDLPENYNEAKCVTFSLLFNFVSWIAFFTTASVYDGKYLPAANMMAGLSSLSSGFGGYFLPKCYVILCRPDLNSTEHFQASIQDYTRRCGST
T2 sequence (Q925D8 21-858 partner): T1 sequence (Q925D8 21-858 partner)

baboon T1R1 (with mT1R3) = tested on: T3, baboon T1R1 (with mT1R3); details: pH 7.4, rG15i2, no IMP; orthosteric site agonist
T3 construct: gene TAS1R1

[2] = tested on: T4, hT1R1(m.371–380) (with mT1R3); details: pH 7.4, rG15i2, no IMP; orthosteric site agonist
T4 construct: gene TAS1R1

Row | EC50 (baboon T1R1 (with mT1R3)) | EC50 [2] | SMILES | mt-clytin-II Ca2+ luminescence, HEK293T [1] | mt-clytin-II Ca2+ luminescence, HEK293T (hT1R1/mT1R3)
1 |  |  | C[C@H](N)C(=O)O [L-Ala] | the squirrel monkey T1R1 demonstrated the greatest L-Ala potency among the four primate T1R1 receptors | the dose-response curves of human (B), macaque (C), baboon (D)
2 | 1800 ± 400 µM | 110 ± 10 µM | N[C@@H](CCC(=O)O)C(=O)O [L-Glu] |  | 
